This is an account of results in PubChem BioAssay (NCI).

The structures appear in SMILES notation.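 Step 1: Grow cells in 96-well plates. Step 2: Expose to compound for 48 hours at 5 concentrations. Step 3: Interpolate endpoints linearly; if unreached, use highest concentration. The concentration for 50% growth inhibition is given as GI50. Definition used: TGI = concentration required for complete inhibition of growth.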 Some results are limits rather than exact numbers.

For one test, the system named is A549 NSCLC. Description: growth of human tumour cells (NCI), 48 h.
Regarding `O=c1[nH]c(=O)n(C2OC(CO)C(O)C2O)c2nc(-c3ccc(-c4ccccc4)cc3)cnc12` (stereo not given), the TGI is > 100 µM.

For `CCOP(=O)(OCC)C(c1ccc(F)cc1)N(C(=O)NC(F)(F)F)c1ccc(OC)cc1` (stereo not given), the TGI was > 100 µM.

As to `CCOC(=O)c1c(C)nc2c3ccccc3c(C#N)c(C)n12`, the TGI is > 100 µM.

For the molecule `Cc1cc2c3c(nc4ccccc42)C(=O)c2ccccc2-c3n1`, the TGI turned out to be 44.9 µM.

Regarding `O=C1c2ccccc2-c2c1c(-c1ccc(F)cc1)nc1ccc3ccccc3c21`, the TGI is > 100 µM.

On to `O=C(O)CCC(=O)OC1N=C(c2ccccc2Cl)c2cc([N+](=O)[O-])ccc2NC1=O` (stereo not given), for which the TGI was > 100 µM.

On to `CO[C@H]1/C=C(/C)CCC[C@H](C)[C@H](O)[C@@H](C)C(=O)C(C)(C)[C@@H](O)CC(=O)O[C@@H]1/C(C)=C/c1csc(C)n1`, for which the GI50 is 0.0219 µM and the TGI was > 100 µM.

In the case of `CCOC(=O)c1ccc(NCC#CCN2CCOCC2)cc1`, the TGI was > 100 µM.

Consider `COc1ccc(-c2nc(SCC(=O)N/N=C/c3ccc(N(C)C)cc3)[nH]c2-c2ccc(OC)cc2)cc1`, for which the TGI is > 100 µM.

`CS(=O)(=O)OCC(CCl)(CCl)CCl`: the TGI was > 100 µM.

Turning to `C=CCSc1nnc2cc(CN3CCCC3)c(-c3ccc(Cl)cc3)nn12`, the TGI was > 100 µM.

In the case of `CCOC(=O)c1cn2c(nc1=O)N[C@H]1CCCC[C@@H]12`, the TGI was > 100 µM.

`CN(C)c1ccc(C(=N/N=C2\C(=O)Nc3ccccc32)c2ccc(N(C)C)cc2)cc1`: the TGI was determined as 43.2 µM.

On to `Cc1ccc(C(=C2Sc3ccccc3S2)C(=C2Sc3ccccc3S2)c2ccc(C)s2)s1`, for which the TGI was > 100 µM.

Regarding `CSC(=S)N(C)C`, the TGI is > 100 µM.

As to `COc1ccc(C2=N/C(=C\c3ccccc3)C(=O)O2)cc1`, the TGI is > 100 µM.

With `CCN(CC)CCN(C(=Nc1ccccc1)N1CCOCC1)c1ccccc1`, the TGI was > 100 µM.

For `COP(=O)(/C=C/c1cc(C(=O)OCc2ccccc2)n(S(=O)(=O)c2ccccc2)c1)OC`, the TGI was > 100 µM.

In the case of `CCC1(CC)C(=O)NN(C(=O)c2ccccc2)C1=O`, the TGI was > 100 µM.

For `COc1ccc(NC(=O)CC(=O)N2N=C(N3c4ccccc4Sc4ccccc43)CC2c2ccccc2)cc1` (stereo not given), the TGI was > 100 µM.

Take `COc1cc(/C=C/C(=O)CC(=O)/C=C/c2ccc(OC(=O)CCCCC3CCSS3)c(OC)c2)ccc1OC(=O)CCCCC1CCSS1` (stereo not given): the TGI was > 100 µM.

The molecule `[O-][n+]1ccccc1Sc1nc(Sc2cccc[n+]2[O-])nc(Sc2cccc[n+]2[O-])n1` gave a TGI of 13.9 µM.

For `CN(C)C1(N(C)C)Oc2c(c(=O)n(C)c(=O)n2C)C(c2ccc(Br)cc2)C1(F)F` (stereo not given), the TGI is > 100 µM.

With `CSc1nsc(-c2ccccc2)[s+]1`, the TGI is > 100 µM.

The test system of the next test is OVCAR-3 ovarian. Description: growth of human tumour cells (NCI), 48 h.
For the molecule `NS(=O)(=O)c1cc2c(cc1Cl)NC(CCC(=O)O)=NS2(=O)=O`, the TGI was > 100 µM.

In the case of `CC(=O)Nc1nc(C#N)[nH]c1C#N`, the TGI was > 100 µM.

For `O=C(O)/C=C(/C(=O)O)C12CCN3CC4=CCOC5CC(=O)NC1C5C4CC32` (stereo not given), the TGI is > 100 µM.

As for `COc1ccc2c(C)cc(=O)oc2c1OC`, the TGI is > 100 µM.

On to `CC1CCC(C(=O)O)(C(Br)C(=O)O)CC1` (stereo not given), for which the TGI is > 100 µM.

Molecule `Cc1cc(N(CCOS(C)(=O)=O)CCOS(C)(=O)=O)ccc1C=O` gave a TGI of 70.9 µM.

`CCOP(=O)(OCC)C(c1ccc(F)cc1)N(C(=O)NC(F)(F)F)c1ccc(OC)cc1` (stereo not given): the TGI is > 100 µM.

`CCOC(=O)c1c(C)nc2c3ccccc3c(C#N)c(C)n12`: the TGI is > 100 µM.

Regarding `Cc1cc2c3c(nc4ccccc42)C(=O)c2ccccc2-c3n1`, the TGI was 0.906 µM.

For the molecule `O=C1c2ccccc2-c2c1c(-c1ccc(F)cc1)nc1ccc3ccccc3c21`, the TGI was > 100 µM.

With `O=C(O)CCC(=O)OC1N=C(c2ccccc2Cl)c2cc([N+](=O)[O-])ccc2NC1=O` (stereo not given), the TGI is > 100 µM.

For the molecule `CO[C@H]1/C=C(/C)CCC[C@H](C)[C@H](O)[C@@H](C)C(=O)C(C)(C)[C@@H](O)CC(=O)O[C@@H]1/C(C)=C/c1csc(C)n1`, the GI50 was < 0.0161 µM and the TGI was determined as 0.111 µM.

Take `CCOC(=O)c1ccc(NCC#CCN2CCOCC2)cc1`: the TGI was > 100 µM.

As for `COc1ccc(-c2nc(SCC(=O)N/N=C/c3ccc(N(C)C)cc3)[nH]c2-c2ccc(OC)cc2)cc1`, the TGI was > 100 µM.

Turning to `CS(=O)(=O)OCC(CCl)(CCl)CCl`, the TGI is > 100 µM.

For `C=CCSc1nnc2cc(CN3CCCC3)c(-c3ccc(Cl)cc3)nn12`, the TGI came out at 36 µM.

In the case of `CCOC(=O)c1cn2c(nc1=O)N[C@H]1CCCC[C@@H]12`, the TGI was > 100 µM.

The molecule `CN(C)c1ccc(C(=N/N=C2\C(=O)Nc3ccccc32)c2ccc(N(C)C)cc2)cc1` displayed a TGI of 3.63 µM.

With `Cc1ccc(C(=C2Sc3ccccc3S2)C(=C2Sc3ccccc3S2)c2ccc(C)s2)s1`, the TGI was > 100 µM.

Regarding `CSC(=S)N(C)C`, the TGI was > 100 µM.

For `COc1ccc(C2=N/C(=C\c3ccccc3)C(=O)O2)cc1`, the TGI is > 100 µM.

For the molecule `CCN(CC)CCN(C(=Nc1ccccc1)N1CCOCC1)c1ccccc1`, the TGI is > 100 µM.

Regarding `COP(=O)(/C=C/c1cc(C(=O)OCc2ccccc2)n(S(=O)(=O)c2ccccc2)c1)OC`, the TGI is > 100 µM.

Consider `CCC1(CC)C(=O)NN(C(=O)c2ccccc2)C1=O`, for which the TGI is > 100 µM.

As for `COc1ccc(NC(=O)CC(=O)N2N=C(N3c4ccccc4Sc4ccccc43)CC2c2ccccc2)cc1` (stereo not given), the TGI was > 100 µM.

In the case of `Cc1cc(C(=O)CCCCOc2ccc(C3=NCCO3)cc2)c(C)n1C`, the TGI is > 100 µM.

In the case of `COc1cc(/C=C/C(=O)CC(=O)/C=C/c2ccc(OC(=O)CCCCC3CCSS3)c(OC)c2)ccc1OC(=O)CCCCC1CCSS1` (stereo not given), the TGI was > 100 µM.

The molecule `[O-][n+]1ccccc1Sc1nc(Sc2cccc[n+]2[O-])nc(Sc2cccc[n+]2[O-])n1` returned a TGI of 6.49 µM.

Consider `CN(C)C1(N(C)C)Oc2c(c(=O)n(C)c(=O)n2C)C(c2ccc(Br)cc2)C1(F)F` (stereo not given), for which the TGI was > 100 µM.

Regarding `CSc1nsc(-c2ccccc2)[s+]1`, the TGI was > 100 µM.

A further test concerns SR leukemia. Description: growth of human tumour cells (NCI), 48 h.
As to `O=C(O)/C=C(/C(=O)O)C12CCN3CC4=CCOC5CC(=O)NC1C5C4CC32` (stereo not given), the TGI is > 100 µM.

Turning to `COc1ccc2c(C)cc(=O)oc2c1OC`, the TGI was > 100 µM.

`CC1CCC(C(=O)O)(C(Br)C(=O)O)CC1` (stereo not given): the TGI was > 100 µM.

Regarding `CCOP(=O)(OCC)C(c1ccc(F)cc1)N(C(=O)NC(F)(F)F)c1ccc(OC)cc1` (stereo not given), the TGI is > 100 µM.

In the case of `CCOC(=O)c1c(C)nc2c3ccccc3c(C#N)c(C)n12`, the TGI is > 100 µM.

In turn, `Cc1cc2c3c(nc4ccccc42)C(=O)c2ccccc2-c3n1` came in with a TGI of 37.2 µM.

Take `CO[C@H]1/C=C(/C)CCC[C@H](C)[C@H](O)[C@@H](C)C(=O)C(C)(C)[C@@H](O)CC(=O)O[C@@H]1/C(C)=C/c1csc(C)n1`: the GI50 was 0.0151 µM and the TGI is > 58.2 µM.

On to `CCOC(=O)c1ccc(NCC#CCN2CCOCC2)cc1`, for which the TGI was > 100 µM.
